These results are taken from article PMC6300878, “In vitro antiplasmodial activity, pharmacokinetic profiles and interference in isoprenoid pathway of 2-aniline-3-hydroxy-1.4-naphthoquinone derivatives” (Malaria Journal, 2018).

For data set [1] the following is noted: cited from earlier work.
Data set [2] deals with tocopherol (TC) biosynthesis.
Description: (§1) A flask was kept untreated and is considered the positive control. After 36 h, the culture was labeled with [1-(n)-^3H]GGPP (3.125 µCi/ml) in normal RPMI 1640 medium [32] during the last 16 h. The schizonts were purified by magnetic column (MACS Separation Columns “CS”, Miltenyi Biotec) [33]. The parasitaemia was estimated by microscopic examination of Giemsa-stained smears and the volume was adjusted of purified culture, according to the control, so that equal numbers of treated and untreated parasites were applied. After metabolic labelling and purification, lyophilized schizonts were used for extraction of MQ and TC. The final extract was injected into the HPLC-RT [34].
(§2) The molecules of MQ and TC were purified by an isocratic system with mobile phase methanol: ethanol (50:50 v/v), flow 0.5 ml/min and detection performed by UV absorption spectrum at a wavelength equal to 270 nm. The mobile phase was filtered on a PTFE (solvent A) and NYLON (solvent B) membrane of 0.20 µM. Radioactive fractions were dried by evaporation at 24 °C and resuspended in scintillation fluid. Quantification of the radioactivity (c.p.m.) was performed on the device Beckman 5000 β-radiation scintillation counter (Beckman, CA, USA) [34].
(§3) The IC50 was estimated by linear interpolation as compared to the drug-free controls, using the software GraphPad PRISM software. […]
Another data set relates to Plasmodium berghei. On the set-up: method as in PMID 23850202. The note with it: murine Plasmodium berghei model; cited from earlier work.
The conditions of data set [3]: solution with a maximum of 1% DMSO.
The subject of data set [4] is menaquinone (MQ) biosynthesis.
Description: as §1, §2, §3

Consider `O=C1C(O)=C([C@H]2CC[C@H](c3ccc(Cl)cc3)CC2)C(=O)c2ccccc21` [atovaquone], for which, in data set [1], the “Binding to plasma proteins” value is reported as “high binding to plasma proteins”, the Bioavailability result is reported as “low bioavailability” and the “Biopharmaceutics Classification (BCS) class” value is “class II”.
With `COc1ccc(NC2=C(O)C(=O)c3ccccc3C2=O)cc1` [4c], the inhibition (usually the share of the control response that was lost under treatment) was determined as 49.6% in data set [2] and 58.1% in data set [4]. In addition, the “Antiplasmodial activity in vivo” value in the data set with Plasmodium berghei was “interesting antiplasmodial activity”. Moreover, the Solubility entry in data set [3] was “soluble”.
Consider `O=C1C(O)=C(Nc2ccccc2)C(=O)c2ccccc21` [4a], for which, in the data set on Plasmodium berghei, the “Antiplasmodial activity in vivo” value is “interesting antiplasmodial activity”. Moreover, in data set [3], the Solubility result is on record as “soluble”.
